These results are taken from PubChem BioAssay AID449750 (Broad Institute, 2010).

Structures are written as SMILES. The source made the active and inactive calls. The rule behind the calls is not given here.

The nature of this assay: non-covalent RecA intein splicing inhibitors, dose response, biochemical, cell-free, fluorescence, secondary screen (AID 449750).
For the molecule `NC(=O)c1c(-c2cccs2)csc1N`, the AC50 is > 38 µM (inactive).
For `Cc1ccc(Sc2ccc(NC(=O)CCl)cc2)cc1C` the value was 0.699 µM.
For `CCN(CC)CCOc1ccc(/C(=C(\Cl)c2ccccc2)c2ccccc2)cc1` the value was 9.57 µM.
For `O=c1c(Cl)c(Cl)cnn1Cc1ccc(F)cc1` the value was 35.3 µM.
Consider `O=c1cc(-c2ccccc2)[nH]n1-c1ccc([N+](=O)[O-])cc1`, for which the AC50 is 13.1 µM.
Take `O=C1CC(c2ccccc2)=NN1c1ccc([N+](=O)[O-])cc1`: the half-maximal activity concentration (AC50) was 7.43 µM.
For `CC1=NNC(=O)C1Cc1ccccc1` (stereo not given) the value was > 38 µM (inactive); for `COc1cccc(C(=O)Nc2nc(SCc3ccc(Cl)cc3)n[nH]2)c1`, > 38 µM (inactive).
The figure for `O=C(CCl)Nc1ccc(-c2ccccc2)cc1` is 5.56 µM; for `CCOc1ccc(CN2CCN(CC3=Cc4cccc(OC)c4OC3)CC2CCO)cc1` (stereo not given) it is > 38 µM (inactive); for `COc1cccc(Nc2c([N+](=O)[O-])cncc2[N+](=O)[O-])c1` it is > 38 µM (inactive).
For `O=S(=O)(CCSc1ccccn1)c1nc2ccccc2s1` the value was > 38 µM (inactive).
On to `Cc1[nH][nH]c(=O)c1C(c1ccc(F)cc1)c1c(C)[nH][nH]c1=O`, for which the AC50 is 11.9 µM.
Turning to `N=c1c2c(-c3ccccc3)c(-c3ccccc3)n(Cc3ccco3)c2ncn1Cc1ccco1`, the half-maximal activity concentration (AC50) is 6.99 µM.
The figure for `CCOC(=O)c1[nH]c(=O)c2ccccc2c1O` is 2.65 µM; for `CC(=O)NC(=S)c1c(N)n(Cc2ccccc2)c(=O)n(C)c1=O` it is > 38 µM (inactive); for `CN1C(=O)C(Cc2ccc3c(c2)OCO3)C(=O)N(C)C1=O` it is > 38 µM (inactive).
The figure for `CC1=NN(c2ccccc2)C(=O)/C1=C/c1ccc(Cl)cc1` is 4.65 µM; for `CCOC(=O)CC1=NN(c2ccccc2)C(=O)C1` it is 36 µM.
`Cn1c(SCC(=O)NCC2CCCO2)ncc(C(=O)Nc2ccc(Cl)cc2)c1=O` (stereo not given): the AC50 was > 38 µM (inactive).
As for `CC(C)c1nnc(NC(=O)CCS(=O)(=O)c2nc(-c3cccs3)cc(C(F)(F)F)n2)s1`, the AC50 is > 38 µM (inactive).
For `CCOC(=O)c1c(C)oc2c1c1c(c3ccccc32)OCN(CCCC(=O)O)C1` the value was 4.93 µM; for `Cc1cccc(C)c1NC(=O)c1nc(S(=O)(=O)Cc2ccccc2)ncc1Cl`, > 38 µM (inactive).
The figure for `CC1=NN(c2ccc(C(=O)O)c(N)c2)C(=O)C1` is 2.87 µM.
For the molecule `Nc1ccc(N2CCCCC2)c2nonc12`, the AC50 was 15.9 µM.
For `Cc1ccc(SCc2[nH]nc3c2C(c2ccc(C)o2)C(C#N)=C(N)O3)cc1` (stereo not given), the AC50 is > 38 µM (inactive).
For `N#C/C(=C/c1ccncc1)c1nc2ccccc2s1`, the AC50 is > 38 µM (inactive).
`CCc1[nH]nc2c1C(c1cccnc1)C(C#N)=C(N)O2` (stereo not given): the AC50 is > 38 µM (inactive).
Consider `CC1=NNC(=O)C1C(c1ccc(F)cc1)C(C#N)C#N` (stereo not given), for which the AC50 was > 38 µM (inactive).
On to `CCCc1nnc(NC(=O)c2nc(S(=O)(=O)Cc3ccc(C)cc3)ncc2Cl)s1`, for which the AC50 is 1.55 µM.
For `O=C(O)COc1ccccc1C(Nc1cccnc1)c1cc(Cl)c2cccnc2c1O` (stereo not given) the value was 6.01 µM; for `O=[N+]([O-])c1cc(-c2ccc(C(=S)N3CCOCC3)o2)ccc1Cl`, 18.4 µM; for `CCOC(=O)c1c(C)oc2c1c(C=NCCC(=O)O)c(O)c1ccccc12`, 22.1 µM.
The figure for `CCOC(=O)CC1=NN(c2ccccc2)C(=O)/C1=C\c1ccc(OC)cc1OC` is 2.34 µM; for `COc1ccc(/C=C2/SC(=S)N(CCCC(=O)Nc3cccc(O)c3)C2=O)cc1` it is > 38 µM (inactive).
In the case of `CC(C)[C@H](NC(=O)Nc1ccc(Oc2ccccc2)cc1)C(=O)O`, the AC50 was > 38 µM (inactive).
The figure for `O=C1/C(=C\c2cc([N+](=O)[O-])ccc2O)SC(=S)N1Cc1ccc(Cl)cc1` is 13.8 µM.
The figure for `Cc1[nH][nH]c(=O)c1C(c1ccc(-c2ccc(F)cc2)o1)c1c(C)[nH][nH]c1=O` is 3.95 µM; for `CC(=O)c1cc(O)c2ccccc2c1O` it is 13.3 µM; for `Clc1ccc(Sc2oc(/C=N/n3cnnc3)cc2Br)cc1` it is > 38 µM (inactive).
With `Oc1cccc(Nc2nc(-c3ccccc3Cl)nc3ccccc23)c1`, the AC50 was > 38 µM (inactive).
As to `COc1ccc(OC)c(NC(=O)Cc2ccc(NC3=NC4CS(=O)(=O)CC4S3)cc2)c1` (stereo not given), the AC50 is > 38 µM (inactive).
Take `COCc1[nH]nc2c1C(c1ccsc1)C(C#N)=C(N)O2` (stereo not given): the AC50 was 35.3 µM.
For `Cc1cc(C)cc(OC(=O)CS(=O)c2ccc(C(F)(F)F)cc2[N+](=O)[O-])c1` (stereo not given) the value was > 38 µM (inactive).
For `CCOc1cc(/C=C2\C(=N)N3N=C(S(=O)(=O)CC)SC3=NC2=O)ccc1OC(=O)c1ccco1` the value was > 38 µM (inactive); for `Cc1ccccc1CS(=O)(=O)c1snnc1C`, > 38 µM (inactive); for `CC1=C(CC(=O)c2ccc(Cl)cc2)C(=O)c2ccccc2C1=O`, 16.3 µM.
The figure for `O=C(Oc1ccc(N2C(=O)C3C4CCC(C4)C3C2=O)cc1)c1ccco1` (stereo not given) is > 38 µM (inactive).
Consider `O=[N+]([O-])c1cc([N+](=O)[O-])c2oc(-c3ccccc3)c(Br)c2c1O`, for which the half-maximal activity concentration (AC50) is 2.04 µM.
The figure for `CC(C)N(c1ccccc1)c1ccc(NC(=O)CCl)cc1` is 1.45 µM.
Consider `FC(F)(F)c1ccc(C2[C@H]3CN(Cc4cccnc4)[C@H](c4ccccc4)C34CC2(c2cccnc2)C4)cc1` (stereo not given in full), for which the concentration at half-maximal activity (AC50) is 5.51 µM.
On to `COc1cc(C=C(c2nc3ccccc3s2)c2nc3ccccc3s2)ccc1O`, for which the concentration at half-maximal activity (AC50) was 3.26 µM.
Consider `Cc1ccc(NC(=O)C(CC(C)C)NC(N)=O)cc1` (stereo not given), for which the AC50 was > 38 µM (inactive).
The figure for `Cc1ccc(O)c(N=CC2=C(O)c3ccccc3C2=O)c1` is 21.5 µM; for `O=C(CCl)Nc1cccc(Oc2ccccc2)c1` it is 6.15 µM; for `CC1CCCN(C(=O)COc2ccc(NC(=O)c3cccs3)cc2)C1` (stereo not given) it is > 38 µM (inactive).
The figure for `CC1=NNC(=O)/C1=C\c1cn(-c2ccccc2)nc1-c1ccc(F)cc1` is 12 µM; for `CCS(=O)(=O)c1ncc(Cl)c(C(=O)Nc2ccc(C)cc2)n1` it is > 38 µM (inactive).
For the molecule `CCc1cccc(CC)c1NC(=O)/C(C#N)=C/c1ccccc1C(F)(F)F`, the concentration at half-maximal activity (AC50) was 11.6 µM.
For `Cn1c(/N=C/c2c(O)ccc3ccccc23)nc2ccccc21` the value was 10.6 µM; for `Fc1ccc(Nc2nc(Oc3ccccc3F)nc(N3CCCC3)n2)cc1`, > 38 µM (inactive).
For `Cc1cnnn1-c1ccc(C(=O)CCl)cc1` the value was > 38 µM (inactive); for `Cc1cc(C)c(S(=O)(=O)Nc2cc(SCC(=O)O)c(O)c3ccccc23)cc1C`, 2.58 µM; for `CCCc1[nH]nc2c1C(c1ccc(OC)cc1OC)C(C#N)=C(N)O2` (stereo not given), 32.3 µM.
On to `CCOC(=O)c1c(NC(=O)CCl)sc(C(=O)N(CC)CC)c1C`, for which the AC50 was 4.22 µM.
The figure for `O=C(NC1CCCCC1)C(c1cccnc1)N(C(=O)CCl)c1cccc(Cl)c1` (stereo not given) is 3 µM; for `CC(C)c1nnc(NC(=O)c2nc(S(=O)(=O)Cc3ccccc3)ncc2Cl)s1` it is 15 µM.
The figure for `CC1=NN(c2ccccc2)C(=O)C1/C=C1\C(=O)NC(=O)N(c2ccc(C)c(C)c2)C1=O` (stereo not given) is 26.1 µM.
The figure for `Cc1[nH]n(-c2ccccc2)c(=O)c1C(C[N+](=O)[O-])c1ccc(Br)cc1` (stereo not given) is 11.1 µM; for `CCCCCCCN(C(=O)CCl)c1ccccc1C` it is 1.89 µM; for `Cc1nn(-c2ccccc2)c2c1C1(C(=O)N3c4c(cccc41)C(C)CC3(C)C)C(C#N)=C(N)O2` (stereo not given) it is 23.9 µM.
For the molecule `COCc1[nH]nc2c1C(c1cccc(OC)c1)C(C#N)=C(N)O2` (stereo not given), the AC50 is > 38 µM (inactive).
For `O=S(=O)(O)Oc1c[nH]c2ccccc12` the value was 5.48 µM; for `O=C1C(Cl)=C(N2CCOCC2)C(=O)N1c1ccc(Br)cc1`, > 38 µM (inactive); for `COc1ccc(S(=O)(=O)/N=C2\C=C(Nc3ccc(O)cc3)C(=O)c3ccccc32)cc1`, 2.53 µM.
On to `C=CCn1c(NC(=O)c2ccc(Br)o2)c(S(=O)(=O)c2ccccc2)c2nc3ccccc3nc21`, for which the AC50 is > 38 µM (inactive).
Consider `CC1=NN(c2ccccc2)C(=O)/C1=C\c1cc(C)n(-c2cccnc2)c1C`, for which the AC50 was > 38 µM (inactive).
Consider `CCOC(=O)c1oc2nc(CC(C)C)c3c(c2c1N)CCC3`, for which the AC50 was > 38 µM (inactive).
With `Nc1cc(N)c(OCC(F)(F)F)cc1OCC(F)(F)F`, the AC50 is 9.65 µM.
For `Cc1ccc(C(c2c(C)[nH][nH]c2=O)c2c(C)[nH][nH]c2=O)cc1` the value was 8.37 µM; for `O=C(NCc1cccnc1)/C(=C\c1ccc(-c2cccc(Cl)c2)o1)S(=O)(=O)c1ccccc1`, 26.9 µM.
Regarding `CC1(C)N=C(SCC(=O)Nc2ccc(Cl)cc2)C(c2ccc(Cl)cc2)=N1`, the half-maximal activity concentration (AC50) is 29.8 µM.
The figure for `CC1=NN(c2ccccc2)C(=O)/C1=C/c1c(O)[nH]c(=O)[nH]c1=O` is > 38 µM (inactive); for `O=[N+]([O-])c1cc(Br)c(Nc2ccccc2)c([N+](=O)[O-])c1` it is 7.02 µM.
Consider `CCc1cccc(NC(=O)CSCc2cc(=O)[nH][nH]2)c1`, for which the AC50 was 27.7 µM.
With `Cc1ccccc1N1C(=O)C(Cl)=C(N2CCOCC2)C1=O`, the AC50 is > 38 µM (inactive).
For `Nc1ccc2ncccc2c1` the value was 15.5 µM; for `CN1C(=O)/C(=C/c2ccc(-c3ccccc3[N+](=O)[O-])o2)SC1=Nc1ccc(Cl)c(C(=O)O)c1`, 17.1 µM; for `Cc1cc(C(c2ccc(O)cc2)c2cc(C)c(O)cc2C)c(C)cc1O`, 4.95 µM.
For the molecule `Cn1c(-c2ccccc2)c(C(=O)CCl)c2ccccc21`, the AC50 was 22.9 µM.
For `c1ccc(Nc2nc(NCc3ccco3)c3ccccc3n2)cc1` the value was 10.8 µM.
For `O=C1C(Cl)=C(N2CCCCC2)C(=O)N1c1ccccc1` the value was > 12 µM (inactive).
For the molecule `COC(=O)C1=NN(C(C)=O)C2(CC(=O)N(c3cc(C)cc(C)c3)C2=O)C1` (stereo not given), the AC50 is > 38 µM (inactive).
For the molecule `O=C(Nc1nc(-c2ccccc2)cs1)c1ccccc1NS(=O)(=O)c1ccc(F)cc1`, the AC50 is 8.16 µM.
For `CCN(CC)CCN1C(=O)C(O)=C(C(C)=O)C1c1ccccc1[N+](=O)[O-]` (stereo not given) the value was 37.7 µM.
